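1) Cells in 96-well plates. 2) Compound, 48 h, 5 concentrations. 3) Linear interpolation between surrounding doses. 4) Unreached endpoint = highest concentration. Here, GI50 denotes the concentration required for 50% inhibition of growth.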 Calls of active or inactive are those of the source. Cut-off read from the data, not from the text of the source: active = GI50 up to about 1.1 µM and inactive = higher.
What was measured:
Assay in all cases: inhibition of tumour cell growth, NCI panel, 48 h
A498 = system: A498
ACHN = system: ACHN
CCRF-CEM = system: CCRF-CEM
HCC 2998 = system: HCC 2998
M14 = system: M14
MOLT-4 = system: MOLT-4
OVCAR-4 = system: OVCAR-4
OVCAR-8 = system: OVCAR-8
RXF 393 = system: RXF 393
SK-OV-3 = system: SK-OV-3
SN12C = system: SN12C
SNB-78 = system: SNB-78
SR = system: SR
U-251 = system: U-251
UO-31 = system: UO-31
KM12 = system: KM12
OVCAR-5 = system: OVCAR-5
SK-MEL-2 = system: SK-MEL-2
Hs-578T = system: Hs-578T
MDA-MB-435 = system: MDA-MB-435

SMILES | GI50 (A498) | GI50 (ACHN) | GI50 (CCRF-CEM) | GI50 (HCC 2998) | GI50 (M14) | GI50 (MOLT-4) | GI50 (OVCAR-4) | GI50 (OVCAR-8) | GI50 (RXF 393) | GI50 (SK-OV-3) | GI50 (SN12C) | GI50 (SNB-78) | GI50 (SR) | GI50 (U-251) | GI50 (UO-31) | GI50 (KM12) | GI50 (OVCAR-5) | GI50 (SK-MEL-2) | GI50 (Hs-578T) | GI50 (MDA-MB-435)
O=C1c2ccccc2N2OC3(N4CCOCC4)CCCC3C12c1ccccc1 (stereo unspecified) | > 100 µM (inactive) | > 100 µM (inactive) | > 100 µM (inactive) | > 100 µM (inactive) | > 100 µM (inactive) | > 100 µM (inactive) | > 100 µM (inactive) | > 100 µM (inactive) | 49.2 µM (inactive) | > 100 µM (inactive) | > 100 µM (inactive) | > 100 µM (inactive) | > 100 µM (inactive) | > 100 µM (inactive) | > 100 µM (inactive) |  |  |  |  | 
Clc1cccc(C2SCc3nc4ccccc4n32)c1 (stereo unspecified) |  | 18.4 µM (inactive) | 27.4 µM (inactive) |  | 19.7 µM (inactive) | 23.1 µM (inactive) | 27 µM (inactive) | 24.8 µM (inactive) | 15 µM (inactive) | 21.6 µM (inactive) | 13.8 µM (inactive) | 22.1 µM (inactive) | 16.3 µM (inactive) | 16 µM (inactive) |  | 18.8 µM (inactive) | 15 µM (inactive) |  |  | 
O=C(Nc1ccc(Br)cc1)C(=O)C(C(=O)c1ccc(Cl)c(Cl)c1)C1OC(=O)c2ccccc21 (stereo unspecified) | 16.2 µM (inactive) | 16.3 µM (inactive) | 10 µM (inactive) | 14.6 µM (inactive) | 15.4 µM (inactive) | 10.4 µM (inactive) | 16.3 µM (inactive) | 12.3 µM (inactive) | 3.5 µM (inactive) | 35.1 µM (inactive) | 20.2 µM (inactive) | 17.1 µM (inactive) | 17.3 µM (inactive) | 8.97 µM (inactive) | 18.5 µM (inactive) | 16.6 µM (inactive) | 17.3 µM (inactive) |  |  | 
COc1ccc(OC)c(NC(=O)C(=O)C(C(C)=O)c2nc3ccc(Cl)cc3nc2O)c1 (stereo unspecified) | > 50 µM (inactive) | > 50 µM (inactive) | > 5 µM (inactive) | > 50 µM (inactive) | > 50 µM (inactive) | > 50 µM (inactive) | > 50 µM (inactive) | > 50 µM (inactive) | > 50 µM (inactive) | > 50 µM (inactive) | > 50 µM (inactive) | > 50 µM (inactive) |  | > 50 µM (inactive) | > 50 µM (inactive) | > 50 µM (inactive) | > 50 µM (inactive) | > 50 µM (inactive) |  | 
COc1ccc(/C=C(\C(=C/c2ccc(OC)cc2)[N+](=O)[O-])[N+](=O)[O-])cc1 | 30.3 µM (inactive) | 5.96 µM (inactive) | 0.429 µM (active) | 15.5 µM (inactive) | 4.11 µM (inactive) | 2.96 µM (inactive) | 12.8 µM (inactive) | 2.03 µM (inactive) | 1.54 µM (inactive) | 16.6 µM (inactive) | 2.88 µM (inactive) |  | 2.03 µM (inactive) | 2.58 µM (inactive) | 4.53 µM (inactive) | 14.6 µM (inactive) | 10.3 µM (inactive) | 11.6 µM (inactive) | 4.18 µM (inactive) | 3.4 µM (inactive)
COC1(OC)CC2CCCCC2=C(C)N1S(=O)(=O)c1ccccc1 (stereo unspecified) |  | > 100 µM (inactive) | > 100 µM (inactive) |  | > 100 µM (inactive) | > 10 µM (inactive) | > 100 µM (inactive) | > 100 µM (inactive) | > 100 µM (inactive) | > 100 µM (inactive) | > 100 µM (inactive) | > 100 µM (inactive) | > 100 µM (inactive) | > 100 µM (inactive) | > 100 µM (inactive) | > 100 µM (inactive) | > 100 µM (inactive) | > 100 µM (inactive) |  | 
[N-]=[N+]=Nc1nnc(CCCCc2nnc(N=[N+]=[N-])o2)o1 | > 100 µM (inactive) | > 100 µM (inactive) | > 100 µM (inactive) | > 100 µM (inactive) | > 100 µM (inactive) | > 100 µM (inactive) | > 100 µM (inactive) | > 100 µM (inactive) | > 100 µM (inactive) | > 100 µM (inactive) | > 100 µM (inactive) | > 100 µM (inactive) |  | > 100 µM (inactive) | > 100 µM (inactive) | 91.4 µM (inactive) | > 100 µM (inactive) | > 100 µM (inactive) |  | 
COC(=O)/C=C(C)/C=C/C1OC(C)OCC1O (stereo unspecified) | > 100 µM (inactive) | > 100 µM (inactive) | > 100 µM (inactive) | > 100 µM (inactive) | > 100 µM (inactive) | > 100 µM (inactive) | > 100 µM (inactive) | > 100 µM (inactive) |  | > 100 µM (inactive) | > 100 µM (inactive) | > 100 µM (inactive) |  | > 100 µM (inactive) | > 100 µM (inactive) | > 100 µM (inactive) | > 100 µM (inactive) |  |  | 
Cc1csc2nc(-c3ccncc3)cn12 | > 100 µM (inactive) | > 100 µM (inactive) | > 42.1 µM (inactive) | > 100 µM (inactive) | > 68.2 µM (inactive) | > 100 µM (inactive) | > 49.4 µM (inactive) | > 100 µM (inactive) |  | > 100 µM (inactive) | > 100 µM (inactive) | > 100 µM (inactive) | 24.3 µM (inactive) | > 46.9 µM (inactive) | > 100 µM (inactive) | > 100 µM (inactive) | > 100 µM (inactive) | > 100 µM (inactive) |  | 
O=C1NC(c2ccc(O)cc2)C2CCC1C2 (stereo unspecified) | > 100 µM (inactive) | > 100 µM (inactive) | > 100 µM (inactive) | > 100 µM (inactive) | > 100 µM (inactive) | > 100 µM (inactive) | > 100 µM (inactive) | > 100 µM (inactive) |  | > 100 µM (inactive) | > 100 µM (inactive) | > 100 µM (inactive) | > 100 µM (inactive) | > 100 µM (inactive) | > 100 µM (inactive) | > 100 µM (inactive) | > 100 µM (inactive) | > 100 µM (inactive) |  | 
CCN(CC)c1ccc(/N=N/c2ccc(-c3nc4cccn(C)c-4n3)cc2)cc1 | 14.9 µM (inactive) |  | 3.75 µM (inactive) |  | 9.33 µM (inactive) | 2.23 µM (inactive) | 11.2 µM (inactive) | 10.3 µM (inactive) | 3.21 µM (inactive) | 17.3 µM (inactive) | 6.04 µM (inactive) | 16.7 µM (inactive) | 2.51 µM (inactive) | 3.92 µM (inactive) | 17.1 µM (inactive) | 8.95 µM (inactive) | 3.56 µM (inactive) | 17.5 µM (inactive) |  | 
COC(=O)/C(=N/NC(C)(C)C)C(C(=O)C=C(C)C)C(=O)C(=O)Nc1ccc(Cl)cc1C (stereo unspecified) | > 100 µM (inactive) | > 100 µM (inactive) | > 100 µM (inactive) | > 100 µM (inactive) | > 100 µM (inactive) | > 100 µM (inactive) | > 100 µM (inactive) | > 100 µM (inactive) |  | > 100 µM (inactive) | > 100 µM (inactive) | > 10 µM (inactive) | > 100 µM (inactive) | > 100 µM (inactive) | > 100 µM (inactive) | > 100 µM (inactive) | > 100 µM (inactive) | > 100 µM (inactive) |  | 
CCN1CN(c2ccccc2)C2(CCN(CC(CC3OCCO3)c3ccc(F)cc3)CC2)C1=O (stereo unspecified) | 3.63 µM (inactive) | 3.73 µM (inactive) | 3.65 µM (inactive) | 9.93 µM (inactive) | 5.24 µM (inactive) | 4.99 µM (inactive) | 13.5 µM (inactive) | 8.81 µM (inactive) | 16.2 µM (inactive) | 39.8 µM (inactive) | 14.3 µM (inactive) |  | 33 µM (inactive) | 14.9 µM (inactive) | 26.2 µM (inactive) | 10.7 µM (inactive) | 6.5 µM (inactive) | 20.1 µM (inactive) | 29.9 µM (inactive) | 14.8 µM (inactive)
CCOC(=O)C1=NN(c2ccc([N+](=O)[O-])cc2)[C@@]2(C)C[C@]3(c4ccccc4)N(c4ccc([N+](=O)[O-])cc4)N=C(C(=O)OCC)N3c3ccccc3N12 | > 100 µM (inactive) | > 100 µM (inactive) | > 100 µM (inactive) | > 100 µM (inactive) | 53.2 µM (inactive) | > 100 µM (inactive) | > 100 µM (inactive) | > 100 µM (inactive) | > 100 µM (inactive) | > 100 µM (inactive) | > 100 µM (inactive) |  | > 100 µM (inactive) | > 100 µM (inactive) | > 100 µM (inactive) | > 100 µM (inactive) | > 100 µM (inactive) | > 100 µM (inactive) | > 100 µM (inactive) | > 100 µM (inactive)
CC1(C)OC2C(=O)OC(COCc3ccccc3)C2O1 (stereo unspecified) | > 100 µM (inactive) | > 100 µM (inactive) | > 100 µM (inactive) | > 100 µM (inactive) | > 100 µM (inactive) | > 100 µM (inactive) | > 100 µM (inactive) | > 100 µM (inactive) | > 100 µM (inactive) |  | > 100 µM (inactive) | > 100 µM (inactive) | 78.9 µM (inactive) | > 100 µM (inactive) | > 100 µM (inactive) | > 100 µM (inactive) | > 100 µM (inactive) | > 100 µM (inactive) |  | 
COC1=CC(=O)c2c(O)c3c(c(O)c2C1=O)CC(C)(O)OC3 (stereo unspecified) [FUSARUBIN] | 9.66 µM (inactive) | 2.95 µM (inactive) | 1.25 µM (inactive) | 2.99 µM (inactive) | 1.87 µM (inactive) | 2.64 µM (inactive) | 1.4 µM (inactive) | 2.34 µM (inactive) | 4.17 µM (inactive) | 18.2 µM (inactive) | 3.61 µM (inactive) |  | 5.36 µM (inactive) | 3.08 µM (inactive) | 3.97 µM (inactive) | 3.1 µM (inactive) | 4.46 µM (inactive) | 1.95 µM (inactive) | 2.38 µM (inactive) | 1.65 µM (inactive)
